Measurements published in a melting point compilation (Tetko et al.; mined from patent text by program, amines drawn as free bases though some values may be those of a salt).

Row | SMILES | melting point
1 | CC1(C)COC(c2ccccc2C2Oc3cccc(F)c3C(=O)C2=Cc2ccccc2)=N1 (stereo not drawn) | 110 to 112 °C
2 | CC(=O)OCC1OC(n2c(Cl)nc3ccc(Cl)cc32)C(OC(C)=O)C1OC(C)=O (stereo not drawn) | 155 to 157 °C
3 | Cc1nnc(C(=O)CCCCCCOc2ccccc2)o1 | 75 to 77 °C
4 | CCN(Cc1cc(Cl)ccc1OCC1CC1)c1ccc(C(=O)NS(=O)(=O)C(F)(F)F)nn1 | 150 °C
5 | O=C(O)c1c(CN2CCC(c3ccccc3)(c3ccccc3)CC2)ncn1Cc1ccc(Cl)cc1 | 135 to 136 °C
6 | Oc1ccc2c(c1)CC(NCC(O)c1ccccc1)CC2 (stereo not drawn) | 157 to 159 °C
7 | CCCn1c(=O)n(Cc2ccccc2)c(=O)c2nc(-c3ccc(/C=C/C(=O)O)cc3)[nH]c21 | > 300 °C
8 | O=S(=O)(CCO)c1ccc(S(=O)(=O)CCO)cc1 | 209 to 212 °C
9 | CCC(=O)Oc1cc(OC)cc(OC)c1C(=O)C=Cc1ccc(C)o1 | 72.5 °C
10 | Cc1cc(C)c(-c2nc3ccc(C(=O)c4ccccc4)cc3[nH]2)[nH]1 | 225 to 229 °C
11 | CCC(=O)Oc1cccc2c1C(=O)c1c(O)cccc1C2C(=O)CC (stereo not drawn) | 125 °C
12 | COC(=O)c1cccc(-c2nc(C(=O)c3ccc(N)c(C(=O)OC)c3)n3ccccc23)c1 | 203 °C
13 | COc1ccc2c(c1)c(C(=O)OCc1ccccc1)nn2Cc1ccccc1 | 107 to 109 °C
14 | Cc1ccc(N2C(=O)C3=C(CCCC3)C2=O)c2c1OC(C)C2 (stereo not drawn) | 158 to 160 °C
15 | Cn1nc2nc(C(C)(C)C)[nH]c(=O)c2c1N(S(C)(=O)=O)S(C)(=O)=O | 258 to 259 °C
16 | C=CCN(CC=C)c1nc(NC(=O)Cc2ccccc2)n2oc(=O)nc2n1 | 165 to 167 °C
17 | CS(=O)(=O)c1cccc(NC(=O)c2cnn3c(C(F)(F)F)cc(-c4ccc(C(F)(F)F)cc4)nc23)c1 | 259 °C
18 | COc1ncnc(OC)c1N | 94 to 96 °C
19 | O=c1ccn([C@H]2C=C[C@@H](O)C2)c(=O)[nH]1 (racemic) | 163 to 164 °C
20 | COc1ccc(C(=O)Nc2ccc3oc4c(c3c2)CCCC4)cc1 | 197 to 198 °C
21 | O=Cc1ccc([N+](=O)[O-])cn1 | 66 to 67 °C
22 | CC(=O)SCC(Cc1ccccc1)C(=O)Nc1ccc(N2CCCC2)c(C(=O)O)c1 (stereo not drawn) | 176 to 178 °C
23 | Brc1ccc(SC2CCN(C(c3ccccc3)(c3ccccc3)c3ccccc3)CC2)cc1 | 174 to 175 °C
24 | CC(=O)c1c[nH]c(-c2ccccc2)n1 | 158 °C
25 | COC(=O)c1cc2cc(OC)c(OCCCl)cc2[nH]1 | 164 to 166 °C

Row | SMILES | melting point
26 | CCCCCCCCCC(=O)Nc1c2c(nc3ccccc13)CCCC2 | 123 to 126 °C
27 | O=c1ncc(Cl)cn1CSc1ccc(F)cc1 | 179 °C
28 | Cc1sc(-c2cccnc2)nc1O | 201 to 202 °C
29 | CCCCC1=C([N+](=O)[O-])C(c2cccc(Cl)c2Cl)c2c[nH]nc2N1 (stereo not drawn) | 220 °C
30 | N#CSc1cc(C(=O)O)cc([N+](=O)[O-])c1C(=O)c1ccccc1 | 184 °C
31 | CC1=NC(=CC(=CN(C)C)c2ccc(C)cc2[N+](=O)[O-])C(=O)O1 | 200 to 201 °C
32 | OC(c1ncc[nH]1)(c1ccc(Cl)cc1Cl)c1ccc(Cl)cc1Cl | 193 °C
33 | CCOCCCCC(=O)c1ccc(S(C)=O)cc1 (stereo not drawn) | 69 to 71 °C
34 | COc1ccc(C2=NN(Cc3cccnc3)C(=O)[C@H]3CC=CC[C@@H]23)cc1OC (relative stereo) | 117 to 120 °C
35 | COc1c(N2C[C@H]3C(CF)C[C@@]3(N)C2)c(F)cc2c(=O)c(C(=O)O)cn([C@@H]3C[C@@H]3F)c12 (stereo partly drawn) | 122 to 125 °C
36 | CC(C)(C)OC(=O)c1cc(Br)cc([N+](=O)[O-])c1 | 77 to 78 °C
37 | CN1CC(CO)CC2(OCCCO)c3cccc4[nH]cc(c34)CC12 (stereo not drawn) | 189 to 195 °C
38 | CCCC[C@H](NC(=O)CC[C@H](C)CNC(=O)COc1ccccc1)C(=O)CS(=O)Cc1ccco1 (stereo partly drawn) | 96 to 99 °C
39 | CCCc1c(OCC(O)COc2cccc(NC(=O)C(=O)OCC)c2)ccc(C(C)=O)c1O (stereo not drawn) | 98 to 101 °C
40 | c1cnn(-c2cc(-n3cccn3)ncn2)c1 | 133 to 134 °C
41 | O=C1CC(C(F)(F)F)CC(=O)N1c1cc(OCC=C(Cl)Cl)c(Cl)cc1F | 106 to 108 °C
42 | O=C(Cn1cc(-c2ccc3nnn(Cc4ccc5ncccc5c4)c3n2)cn1)N1CCCC1 | 136 to 138 °C
43 | CCCc1c(OCCCSc2ccc(CC(=O)OC)c(Cl)c2Cl)ccc(C(C)=O)c1O | 82 to 85 °C
44 | CCOC(=O)C(C)NC(=O)c1cc(C)on1 (stereo not drawn) | 65 to 66 °C
45 | CCOC1(OCC)CCC(C#N)(CC#N)CC1 | 74 to 75 °C
46 | Clc1ccc(C#Cc2ccc(Br)cc2)cc1 | 179 °C
47 | COc1ccc(-c2c(=O)[nH]c3cc(Cl)c(Cl)cc3[n+]2[O-])cc1 | 262 to 264 °C
48 | Cn1cc(-c2cnc3ccc(Br)cc3n2)cn1 | 172 °C
49 | CCOC(=O)c1c(-c2cc(C)c(O)c(C)c2)c(C)n2c1-c1cc(N)c(OC)cc1CC2 | 104 to 106 °C
50 | Cc1ccc(CCc2n[nH]c3c2c(=O)n(-c2ccccc2)c2ncccc32)cc1 | 264 to 265 °C

Row | SMILES | melting point
51 | CCN1CCc2ccc(Nc3ncc(Br)c(Nc4ccccc4C(=O)NC)n3)cc2CC1 | 203 to 204 °C
52 | Cc1[nH]c(C(=O)N2CCCC2)c(C)c1-c1nc2ccc(C(=O)c3ccccc3)cc2[nH]1 | 155 to 157 °C
53 | CCc1c(-c2ccc(O)cc2)c2ccc3ccc(COCCN4CCCC4)c1n32 | 183 to 187 °C
54 | CC(C)Nc1cccnc1N1CCN(C(=O)c2ccc(C(=O)N(CCO)c3ccccc3)cc2)CC1 | 71 to 72 °C
55 | COCC(=O)Nc1cc(NC(=O)COC)cc(C(=O)OC)c1 | 140 to 141 °C
56 | CC1(C)CC(=O)C2=C(C1)NC1=C(C(=O)CC(C)(C)C1)C2c1cccc(Oc2cc(Cl)cc(Cl)c2)c1 | 254 to 255 °C
57 | C[C@@H]1Cc2ccsc2[C@H](c2ccccc2)N1CCNS(=O)(=O)c1ccc(N)cc1 (relative stereo) | 184 to 186 °C
58 | CCOC(=O)Cc1ccc(CCC(NC(=O)OC)C(=O)O)cc1 (stereo not drawn) | 108 to 110 °C
59 | O=C(NC1CCCC1)c1cccc(-c2ccnc3c(C(=O)c4cccs4)cnn23)c1 | 207 to 209 °C
60 | COC(=O)c1sc(C(=O)OC)c([N+](=O)[O-])c1OC | 80 to 82 °C
61 | CCCc1ccc(OCCC(C)C)c2c(=O)cc(-c3nnn[nH]3)oc12 | 199 to 200 °C
62 | Cc1cc(-c2cc(CO)c(=O)n(Cc3ccc(Cl)cc3)n2)ccc1F | 157 to 158 °C
63 | CC(C)(C)OC(=O)NCC1(C(=O)O)CC1 | 104 to 106 °C
64 | NC(=O)N1CC(Oc2ccc(Cl)c(Cl)c2)C1 | 179 to 184 °C
65 | CC(=O)Nc1nc(/C=C/C(=O)N2CCN(C(=O)c3cc(C(F)(F)F)cc(C(F)(F)F)c3)[C@H](Cc3ccc(C)c(C)c3)C2)cs1 | 145 to 149 °C
66 | CC(=O)Nc1ccc(OC(=O)C2CSC(=O)N2)cc1 (stereo not drawn) | 204 to 205 °C
67 | Cc1ccc2[nH]c(=O)n3c(=O)[nH]nc3c2c1C | > 350 °C
68 | CCCc1nn(C)c2c(=S)[nH]c(-c3cc(S(=O)(=O)N4C[C@@H](C)N[C@@H](C)C4)ccc3OCC)nc12 | 196 to 199 °C
69 | O=C(Nc1ccc(-n2nc(C(F)(F)F)cc2C(F)(F)F)cc1)c1ccccc1Cl | 155 to 157 °C
70 | O=C(O)c1cncc(OCc2ccccc2)n1 | 160 to 162 °C
71 | CCc1cc(NC(C)=O)cc(CC)n1 | 74 to 78 °C
72 | COC(=O)[C@H](Cc1ccc(NC(=O)c2c(Cl)cccc2Cl)cc1)NC(=O)c1ccc(-n2nnnc2NCc2cccc(O)c2)cc1Cl | 155 to 158 °C
73 | CC(=O)CSc1cc(C(C)(C)C)c(O)c(C(C)(C)C)c1 | 105 to 106 °C
74 | Cc1cccc2c(=O)[nH]c(N3CCC(N(C)C)CC3)cc12 | 217 to 218 °C
75 | COc1ccccc1C(=O)Nc1ccc(F)cc1 | 79.6 to 80.2 °C

Row | SMILES | melting point
76 | CC(=O)NC[C@H]1CN(c2ccc(N3CCNC(=O)CC3)c(F)c2)C(=O)O1 | 140 to 146 °C
77 | CC(=O)N1CCO[C@@H]2c3ccccc3OCC[C@H]21 (relative stereo) | 97 to 98 °C
78 | COC(=O)c1ccc(CN2CCC(N)CC2)nc1 | 173 to 175 °C
79 | COC(=O)C=CC=CCSc1ccc2ccccc2c1 | 73 to 75 °C
80 | CC(C)(C)c1cc(C2CC(=O)N(CCCCCCN3C(=O)CC(c4cc(C(C)(C)C)c(O)c(C(C)(C)C)c4)C3=O)C2=O)cc(C(C)(C)C)c1O (stereo not drawn) | 190 to 193 °C
81 | CCOC(=O)C1=C(C)NC(C)=C([N+](=O)[O-])C1c1cccc(Cl)c1 (stereo not drawn) | 168 °C
82 | N#Cc1ccc(-c2ccc(-c3ccc(C#N)cn3)s2)cc1 | 316 to 318 °C
83 | OC1CC2c3ccccc3CCN2C2CCCCC12 (stereo not drawn) | 140 to 142 °C
84 | C=CC(=O)N1CC(c2ccccc2)c2ccccc21 (stereo not drawn) | 77 to 78 °C
85 | CCCc1ccc(Oc2ccc3c(c2)OC(C(F)(F)F)C(C(=O)O)=C3)cc1 (stereo not drawn) | 144 to 146 °C
86 | CCOCc1nc2c(N)nc3cc(OCCOCc4ccccc4)ccc3c2n1CC(C)(C)O | 131 to 132 °C
87 | CCc1nc2c(N)nc3ccccc3c2n1CCOCCS(C)(=O)=O | 160 to 163 °C
88 | Cc1cc(C(N)=O)co1 | 158 °C
89 | CN=c1c2c(C)c(C)n(-c3ccccc3)c2nc(C)n1C | 132 to 133 °C
90 | O=c1[nH]c2cc(Cl)ccc2c(O)c1-c1ccccc1Cl | > 300 °C
91 | CCCc1nc2c(N)nc3ccccc3c2n1CCCCS(C)(=O)=O | 202 to 204 °C
92 | O=C(c1cc(C(F)(F)F)cc(C(F)(F)F)c1)N1CCC2(CC1)C(=O)NCN2c1ccc(Cl)c(Cl)c1 | 220 to 222 °C
93 | COC[C@](C#N)(C(=O)NCC(C)(C)C)[C@H](c1ccccc1OC)c1cccc2ccccc12 (relative stereo) | 185 to 186 °C
94 | O=C(O)CCCc1cc2nc(Cl)ccc2n1S(=O)(=O)c1cccc(-c2cncs2)c1 | 157 to 160 °C
95 | CN(C)c1ccc(C2(c3ccc(N(C)C)cc3N(C)C)OC(=O)c3c(Cl)c(Cl)c(Cl)c(Cl)c32)cc1 (stereo not drawn) | 227 to 229 °C
96 | CCC(=O)C1(O)CC=C2CC3C4C=CC(O)C5OC1=C2C45CCN3C (stereo not drawn) | 85 to 86 °C
97 | Cc1cccc(-c2n[nH]cc2-c2ccc(F)c(-c3ncc(C(C)(C)O)cn3)c2)n1 | 162 °C
98 | Cc1ccc(N2C(=O)CN3C(=O)CC[C@@H]32)cc1 | 149 to 150 °C
